Measured values from ChEMBL document CHEMBL3817771, “Structure-Based Design of Peptidic Inhibitors of the Interaction between CC Chemokine Ligand 5 (CCL5) and Human Neutrophil Peptides 1 (HNP1)” (J Med Chem, 2016).
Active and inactive are the calls of the source. The rule behind the calls is not given here. Peptide text beside a SMILES is read from it.

What was measured:
[1] = molecular target: T1, C-C motif chemokine 5/Neutrophil defensin 1 (Defensin, alpha 1) (Homo sapiens) (UniProt P13501+P59665); assay: Inhibition of CCL5 (unknown origin)-HNP1 (unknown origin) interaction in HUVEC assessed as reduction in CCL5-HNP1-driven human monocyte adhesion at 100 ug/ml pre-incubated for 5 mins before human monocyte addition; format: cell-based
T1 sequence (P13501 whole entry, looked up): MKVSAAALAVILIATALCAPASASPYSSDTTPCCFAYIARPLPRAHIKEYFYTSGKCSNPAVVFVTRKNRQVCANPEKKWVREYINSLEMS
T1 sequence (P59665 whole entry, looked up): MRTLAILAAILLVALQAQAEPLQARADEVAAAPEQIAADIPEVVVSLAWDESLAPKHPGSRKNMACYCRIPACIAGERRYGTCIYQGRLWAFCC

[2] = molecular target: T1, C-C motif chemokine 5/Neutrophil defensin 1 (Defensin, alpha 1) (Homo sapiens); assay: Inhibition of CCL5 (unknown origin)-HNP1 (unknown origin) interaction in HUVEC assessed as CCL5-HNP1-driven human monocyte adhesion at 100 ug/ml pre-incubated for 5 mins before human monocyte addition; format: cell-based; set-up: scale not given: the % may be the effect or the level left

| Compound | inhibition [1] | Activity [2] [%] |
| --- | --- | --- |
| H-RRYGTSIYQ-OH | Active |  |
| H-RRYGTSRYQ-OH | Active |  |
| H-TYQRRSGKY-OH | inactive |  |
| H-YQGRLWAFSS-OH | Active |  |

Continued, values first:

| inhibition [1] | Activity [2] [%] | Compound |
| --- | --- | --- |
| Active |  | CC(C)C[C@@H]1NC(=O)[C@H](CCCNC(=N)N)NC(=O)CNC(=O)[C@H](CCC(N)=O)NC(=O)[C@H](Cc2ccc(O)cc2)NC(=O)[C@H](CCCCN)NC(=O)[C@H](C)NC(=O)[C@H]([C@@H](C)O)NC(=O)CNC(=O)[C@H](Cc2ccc(O)cc2)NC(=O)[C@H](CCCNC(=N)N)NC(=O)[C@H](CCCNC(=N)N)NC(=O)[C@@H](N)CSSC[C@@H](C(N)=O)NC(=O)[C@H](C)NC(=O)[C@H](Cc2ccccc2)NC(=O)[C@H](C)NC(=O)[C@H](Cc2c[nH]c3ccccc23)NC1=O (HELM PEPTIDE1{C.R.R.Y.G.T.A.K.Y.Q.G.R.L.W.A.F.A.C.[am]}$PEPTIDE1,PEPTIDE1,1:R3-18:R3$$$V2.0) |
| Active | 11.8 | H-RRYGTSKYQ-OH |
